Drawing on patent publication US20240270762A1, “PENICILLIN-BINDING PROTEIN INHIBITORS” (priority 2021, published 2024), this text covers MIC and EC50 for six compounds.

Converted amounts (≈) assume the structure as drawn.

Experiment [1] has as its system E. coli AG100. Nature of the experiment: microbe, parasite or virus in culture. Format: cell-based. The following applies: Escherichia coli, AG100, read-out: MIC E. coli AG100.
Experiment [2] relates to A. baumannii ATCC 19606. Kind of experiment: microbe, parasite or virus in culture. In kind it is cell-based. As to conditions: Acinetobacter baumannii, ATCC19606, read-out: MIC, A. baumannii ATCC 19606.
For experiment [3], the system named is K. pneumoniae SI-117. Nature of the experiment: microbe, parasite or virus in culture. Format: cell-based. As to conditions: Klebsiella pneumoniae, SI117, read-out: MIC K. pneumoniae SI-117.
Experiment [4] has as its system P. aeruginosa ATCC 35151. Nature of the experiment: microbe, parasite or virus in culture. The following applies: Pseudomonas aeruginosa, ATCC35151, read-out: MIC P. aeruginosa ATCC 35151. In kind it is cell-based.
For experiment [5], the system named is P. aeruginosa (ΔmexAB-oprM). Kind of experiment: Broth microdilution MIC in CAMHB. The following applies: Pseudomonas aeruginosa; read-out: MIC P. aeruginosa ΔmexAB-oprM. Format: cell-based.
Experiment [6] concerns K. pneumoniae UMM. Kind of experiment: microbe, parasite or virus in culture. Format: cell-based. The following applies: Klebsiella pneumoniae, read-out: MIC K. pneumoniae UMM.
For experiment [7], the system named is P. aeruginosa ATCC 27853. Nature of the experiment: microbe, parasite or virus in culture. Format: cell-based. The following applies: Pseudomonas aeruginosa, ATCC27853, read-out: MIC P. aeruginosa ATCC 27853.
In experiment [8] the test system is E. coli ATCC 25922. Kind of experiment: microbe, parasite or virus in culture. In kind it is cell-based. As to conditions: Escherichia coli, ATCC25922, read-out: MIC E. coli 25922.
In experiment [9] the test system is K. pneumoniae 848844. Nature of the experiment: microbe, parasite or virus in culture. In kind it is cell-based. The following applies: Klebsiella pneumoniae, 848844, read-out: MIC K. pneumoniae 848844.
In experiment [10] the test system is E. coli AG100A. Kind of experiment: Broth microdilution MIC in CAMHB. Format: cell-based. As to conditions: Escherichia coli, read-out: MIC E. coli AG100A.
Experiment [11] relates to E. coli D22. Nature of the experiment: microbe, parasite or virus in culture. As to conditions: Escherichia coli, D22, read-out: MIC E. coli D22. Format: cell-based.
Experiment [12] has as its system E. coli 901C. Nature of the experiment: microbe, parasite or virus in culture. The following applies: Escherichia coli, read-out: MIC E. coli 901C. Format: cell-based.
For experiment [13], the target named is A. baumannii PBP2 (Acinetobacter baumannii, UniProt D0C8Z9). Nature of the experiment: Bocillin-FL competition binding via gel filtration, A. baumannii PBP2. In a few lines: (§1)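 Competitive equilibrium binding with Bocillin-FL reporter: PBP pre-incubated with inhibitor dilutions, Bocillin-FL added, 15 min incubation. Labelled enzyme isolated by size-exclusion spin plates, fluorescence measured; EC50 obtained by fitting bound fraction against inhibitor concentration with a Hill-coefficient model.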

Experiment [14] has as its target T1, A. baumannii PBP1a (Acinetobacter baumannii, UniProt A0ABX6CK30).
T1 sequence (A0ABX6CK30 1-851): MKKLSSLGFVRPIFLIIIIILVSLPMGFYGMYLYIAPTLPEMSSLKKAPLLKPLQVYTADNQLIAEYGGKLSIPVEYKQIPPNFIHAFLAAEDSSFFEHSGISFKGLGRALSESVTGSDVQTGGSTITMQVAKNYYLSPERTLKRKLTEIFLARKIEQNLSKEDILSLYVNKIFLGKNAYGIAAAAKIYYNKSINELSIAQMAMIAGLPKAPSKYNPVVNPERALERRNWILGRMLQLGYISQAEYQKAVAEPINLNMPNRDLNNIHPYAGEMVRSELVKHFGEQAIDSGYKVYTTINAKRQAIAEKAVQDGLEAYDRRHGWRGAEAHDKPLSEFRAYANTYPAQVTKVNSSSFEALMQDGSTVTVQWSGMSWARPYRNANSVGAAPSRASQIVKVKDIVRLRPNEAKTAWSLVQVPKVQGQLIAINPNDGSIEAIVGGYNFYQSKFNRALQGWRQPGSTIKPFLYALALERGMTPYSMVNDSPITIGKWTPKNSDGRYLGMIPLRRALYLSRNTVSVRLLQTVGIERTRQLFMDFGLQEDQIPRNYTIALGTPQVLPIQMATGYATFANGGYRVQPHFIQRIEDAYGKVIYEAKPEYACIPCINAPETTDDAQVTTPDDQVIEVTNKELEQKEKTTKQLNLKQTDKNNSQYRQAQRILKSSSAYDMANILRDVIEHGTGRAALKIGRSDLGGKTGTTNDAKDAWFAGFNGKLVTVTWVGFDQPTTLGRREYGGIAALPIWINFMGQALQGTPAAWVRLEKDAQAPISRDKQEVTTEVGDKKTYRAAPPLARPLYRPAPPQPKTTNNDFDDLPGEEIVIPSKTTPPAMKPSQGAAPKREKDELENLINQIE
Nature of the experiment: Bocillin-FL competition binding via gel filtration, A. baumannii PBP1a. The following applies: competition binding assay using Bocillin-FL via gel filtration; read-out: A. baumannii PBP1a Potency. In outline:
as §1

A. baumannii PBP2, sequence (D0C8Z9 whole entry): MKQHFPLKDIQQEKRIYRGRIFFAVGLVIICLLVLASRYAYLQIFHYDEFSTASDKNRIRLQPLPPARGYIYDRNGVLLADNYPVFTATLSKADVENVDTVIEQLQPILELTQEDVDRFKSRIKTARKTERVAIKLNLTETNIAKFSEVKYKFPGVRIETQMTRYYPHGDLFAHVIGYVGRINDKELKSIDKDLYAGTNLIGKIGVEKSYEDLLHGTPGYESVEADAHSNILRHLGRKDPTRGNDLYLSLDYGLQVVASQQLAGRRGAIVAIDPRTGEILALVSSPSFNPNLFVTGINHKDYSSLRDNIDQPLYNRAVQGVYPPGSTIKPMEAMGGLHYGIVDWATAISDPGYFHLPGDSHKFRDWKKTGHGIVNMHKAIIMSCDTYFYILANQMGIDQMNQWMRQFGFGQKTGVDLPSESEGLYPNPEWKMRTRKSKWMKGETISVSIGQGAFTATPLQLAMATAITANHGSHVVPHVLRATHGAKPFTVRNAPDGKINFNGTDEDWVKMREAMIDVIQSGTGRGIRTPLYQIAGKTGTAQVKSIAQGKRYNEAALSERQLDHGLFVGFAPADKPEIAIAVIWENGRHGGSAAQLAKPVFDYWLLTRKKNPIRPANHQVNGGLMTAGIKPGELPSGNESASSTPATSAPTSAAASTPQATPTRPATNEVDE

In the case of `O=C(O)c1cccc2c1OB(O)[C@@H](NC(=O)[C@@H](NC(=O)c1cnc3n(c1=O)CCS3)c1ccc(P(=O)(O)O)cc1)C2` (single isomer, unassigned) [Example 196], the MIC was greater than 128 µg/mL in experiment [1]; greater than 128 µg/mL in experiment [2]; greater than 128 µg/mL in [3]; 8 to 16 µg/mL (≈ 13.3 to 26.7 µM) in [4]; greater than 128 µg/mL in [5]; greater than 128 µg/mL in [6]. For the same compound, the MIC was greater than 128 µg/mL in experiment [7]; greater than 128 µg/mL in experiment [8]; greater than 128 µg/mL in experiment [9]; greater than 128 µg/mL in experiment [10]; greater than 128 µg/mL in experiment [11]; 32 to 64 µg/mL (≈ 53.3 to 107 µM) in [12].
Turning to `O=C(O)c1cccc2c1OB(O)[C@@H](NC(=O)[C@H](NC(=O)c1cnc3n(c1=O)CCS3)c1ccc(P(=O)(O)O)cc1)C2` (single isomer, unassigned) [Example 197], the MIC in [1] is greater than 128 µg/mL; in experiment [2], greater than 128 µg/mL; in experiment [3], greater than 128 µg/mL; in [4], less than 1 µg/mL; in experiment [5] it was 32 to 64 µg/mL (≈ 53.3 to 107 µM); in experiment [6] it was greater than 128 µg/mL. For the same compound, the MIC in [7] is greater than 128 µg/mL; in experiment [8], greater than 128 µg/mL; in experiment [9], greater than 128 µg/mL; in experiment [10] it was greater than 128 µg/mL; in experiment [11], 8 to 16 µg/mL (≈ 13.3 to 26.7 µM); in experiment [12], 2 to 4 µg/mL (≈ 3.33 to 6.66 µM).
Regarding `CCN1CCN(C(=O)NC(C(=O)N[C@H]2Cc3cccc(C(=O)O)c3OB2O)c2ccc(P(=O)(O)O)c(F)c2O)C(=O)C1=O` (stereo partly drawn) [Example 198, (3R)-3-(2-(4-ethyl-2,3-dioxopiperazine-1-carboxamido)-2-(3-fluoro-2-hydroxy-4-phosphonophenyl)acetamido)-2-hydroxy-3,4-dihydro-2H-benzo[e][1,2]oxaborinine-8-carboxylic acid], the MIC in experiment [1] is greater than 128 µg/mL; in experiment [2] it was 32 to 64 µg/mL (≈ 51.4 to 103 µM); in experiment [3], greater than 128 µg/mL; in experiment [4], 8 to 16 µg/mL (≈ 12.9 to 25.7 µM); in experiment [5], greater than 128 µg/mL; in experiment [6], 32 to 64 µg/mL (≈ 51.4 to 103 µM). In addition, the MIC was greater than 128 µg/mL in [7]; greater than 128 µg/mL in experiment [8]; greater than 128 µg/mL in [9]; 32 to 64 µg/mL (≈ 51.4 to 103 µM) in experiment [10]; 8 to 16 µg/mL (≈ 12.9 to 25.7 µM) in [11]; less than 1 µg/mL in experiment [12].
Take `O=C(NCCCS(=O)(=O)N1CCN(C(=O)NC(C(=O)N[C@H]2Cc3ccc(F)c(C(=O)O)c3OB2O)c2cc(F)c(O)c(O)c2Cl)C1=O)c1ccccc1` (stereo partly drawn) [Example 268, (3R)-3-(2-(3-((3-benzamidopropyl)sulfonyl)-2-oxoimidazolidine-1-carboxamido)-2-(2-chloro-5-fluoro-3,4-dihydroxyphenyl)acetamido)-7-fluoro-2-hydroxy-3,4-dihydro-2H-benzo[e][1,2]oxaborinine-8-carboxylic acid]: the EC50 in experiment [13] and in experiment [14] was 10 to 50 µM in each case.
In the case of `O=C(NCCCS(=O)(=O)N1CCN(C(=O)NC(C(=O)N[C@H]2Cc3ccc(F)c(C(=O)O)c3OB2O)c2cc(F)c(O)c(O)c2Cl)C1=O)c1ccc(O)cc1` (stereo partly drawn) [Example 269, (3R)-3-(2-(2-chloro-5-fluoro-3,4-dihydroxyphenyl)-2-(3-((3-(4-hydroxybenzamido)propyl)sulfonyl)-2-oxoimidazolidine-1-carboxamido)acetamido)-7-fluoro-2-hydroxy-3,4-dihydro-2H-benzo[e][1,2]oxaborinine-8-carboxylic acid], the EC50 was 10 to 50 µM in experiment [13] and less than 10 µM in experiment [14].
Taken in the same sequence, the figures for `O=C(NCCCS(=O)(=O)N1CCN(C(=O)N[C@@H](C(=O)N[C@H]2Cc3ccc(F)c(C(=O)O)c3OB2O)c2cc(F)c(O)c(O)c2Cl)C1=O)c1cccc(O)c1` [Example 271, (R)-3-((R)-2-(2-chloro-5-fluoro-3,4-dihydroxyphenyl)-2-(3-((3-(3-hydroxybenzamido)propyl)sulfonyl)-2-oxoimidazolidine-1-carboxamido)acetamido)-7-fluoro-2-hydroxy-3,4-dihydro-2H-benzo[e][1,2]oxaborinine-8-carboxylic acid] were less than 10 µM and less than 10 µM.
